The values below come from ChEMBL document CHEMBL1127093, “Competitive NMDA receptor antagonists: synthesis of -ketophosphonate-substituted piperidine carboxylic acid derivatives” (Bioorg Med Chem Lett, 1993).

This test concerns the target Glutamate NMDA receptor. Put plainly: Binding potency for NMDA site of the glutamate receptor complex using rat brain cortical membranes in a competitive binding assay with [3H]CPP as the radioligand. The format is cell membranes, Membrane.

Structures are written as SMILES.

`O=C(CP(=O)(O)O)[C@H]1CCCN[C@H]1C(=O)O`: the 50% inhibitory concentration (IC50) was 40 nM. This lies in the double-digit nanomolar range.

Regarding `C[C@]1(C(=O)CP(=O)(O)O)CCCN[C@H]1C(=O)O`, the IC50 is 320 nM. This IC50 lies about 8-fold higher than the previous one. Consider `C[C@]1(C(=O)CP(=O)(O)O)C=CCN[C@H]1C(=O)O`, for which the IC50 stood at 3.2 nM. On to `C[C@@H]1CCN[C@@H](C(=O)O)[C@H]1C(=O)CP(=O)(O)O`, for which the IC50 is 15 nM.

As for `O=C(CP(=O)(O)O)C1=CCCN[C@H]1C(=O)O`, the half-maximal inhibitory concentration (IC50) was 7.6 nM.
